Reference: ChEMBL document CHEMBL1201862, “PubChem BioAssay data set” (2004)
Calls of active or inactive are those of the source.

Experiments:
[1] = microbe, parasite or virus in culture; assay type: functional; conditions: Mycobacterium tuberculosis
[2] = reduction of Shn3 3'UTR firefly luciferase signal, dose response, Schnurri-3 inhibitor project, cell-based, Clone20 osteoblasts, cherry-pick, set 2 (AID 720490); assay type: functional;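 note: actives lower the luminescence signal as inhibitors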
[3] = Shn3 3'UTR reporter inhibitors, dose response, cell-based, Clone20 osteoblasts, firefly luciferase, cherry-picked (AID 624132); assay type: functional;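 note: firefly luciferase luminescence from reporter carrying the Shn3 3'UTR in osteoblasts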
Major prion protein = Major prion protein (Homo sapiens, UniProt P04156); assay type: functional, cell-based
[4] = target: T1, Heat shock factor protein 1 (Mus musculus, UniProt P38532); assay: HSF1 potentiators in luciferase reporter cells, confirmation, cell-based, NIH3T3, luminescence, dose retest (AID 435004); assay type: functional;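 note: stress induced by proteasome inhibitor MG132 added 30 min after compound; luciferase reporter driven by HSF1 response element in NIH3T3 cells; actives raise luminescence as potentiators of the MG132 stress response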
T1 sequence (P38532 whole entry): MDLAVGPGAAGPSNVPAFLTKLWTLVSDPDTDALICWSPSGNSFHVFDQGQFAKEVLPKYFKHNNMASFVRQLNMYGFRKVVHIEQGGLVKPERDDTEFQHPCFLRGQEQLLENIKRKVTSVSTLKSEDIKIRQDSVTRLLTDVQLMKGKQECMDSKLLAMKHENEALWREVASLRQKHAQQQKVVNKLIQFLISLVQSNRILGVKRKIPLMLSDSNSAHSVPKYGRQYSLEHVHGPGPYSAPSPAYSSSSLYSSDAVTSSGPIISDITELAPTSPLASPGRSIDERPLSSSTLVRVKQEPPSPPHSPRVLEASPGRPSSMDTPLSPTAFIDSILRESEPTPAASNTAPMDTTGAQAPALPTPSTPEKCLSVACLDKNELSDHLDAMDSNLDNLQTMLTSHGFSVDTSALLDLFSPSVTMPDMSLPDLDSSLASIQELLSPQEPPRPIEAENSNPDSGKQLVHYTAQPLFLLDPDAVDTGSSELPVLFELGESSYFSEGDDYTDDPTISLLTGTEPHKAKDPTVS

[5] = target: Mitogen-activated protein kinase 10 (Homo sapiens, UniProt P53779); assay: Dose response biochemical screening assay for inhibitors of c-Jun N-Terminal Kinase 3 (JNK3). [Related pubchem assays: 746 ]
[6] = test system: Streptococcus sp. 'group A'; assay: growth inhibition of control SK(-) GAS strain, dose response, counter-screen for streptokinase expression inhibitor project, luminescence, kanamycin, BacTiterGlo, confirmation (AID 1900); assay type: functional, organism-based
[7] = Counterscreen for […] of the human trace amine associated receptor 1 (TAAR1): Fluorescence-based cell-based high throughput dose response assay to identify nonselective Ga16 agonists.; assay type: functional
[8] = target: T2, Trace amine-associated receptor 1 (Homo sapiens, UniProt Q96RJ0); assay: Counterscreen for antagonists of the human trace amine associated receptor 1 (hTAAR1): Fluorescence-based cell-based high throughput dose response assay to identify TAAR1 Agonists.; assay type: functional
T2 sequence (Q96RJ0 whole entry): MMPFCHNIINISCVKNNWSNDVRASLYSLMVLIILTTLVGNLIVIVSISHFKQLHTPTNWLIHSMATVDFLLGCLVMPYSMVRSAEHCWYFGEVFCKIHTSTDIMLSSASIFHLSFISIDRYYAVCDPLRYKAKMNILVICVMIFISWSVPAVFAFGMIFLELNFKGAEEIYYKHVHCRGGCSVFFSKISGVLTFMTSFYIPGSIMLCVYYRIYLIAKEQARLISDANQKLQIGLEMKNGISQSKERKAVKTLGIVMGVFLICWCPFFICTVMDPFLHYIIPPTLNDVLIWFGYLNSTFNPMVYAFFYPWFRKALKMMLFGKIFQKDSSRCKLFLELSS

H9c2 = assay: cells; assay type: functional, cell-based; conditions: Rattus norvegicus, H9c2, Myocardium
Streptokinase A = target: T3, Streptokinase A (Streptococcus pyogenes serotype M1, UniProt P10520); assay: S. pyogenes streptokinase expression inhibitors, potency, dose response, plasminogen activation absorbance, OD405 (AID 1914); assay type: functional, Streptococcus pyogenes M1 GAS;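 note: secreted streptokinase activity via plasminogen activation per viability signal from cell pellet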
T3 sequence (P10520 whole entry): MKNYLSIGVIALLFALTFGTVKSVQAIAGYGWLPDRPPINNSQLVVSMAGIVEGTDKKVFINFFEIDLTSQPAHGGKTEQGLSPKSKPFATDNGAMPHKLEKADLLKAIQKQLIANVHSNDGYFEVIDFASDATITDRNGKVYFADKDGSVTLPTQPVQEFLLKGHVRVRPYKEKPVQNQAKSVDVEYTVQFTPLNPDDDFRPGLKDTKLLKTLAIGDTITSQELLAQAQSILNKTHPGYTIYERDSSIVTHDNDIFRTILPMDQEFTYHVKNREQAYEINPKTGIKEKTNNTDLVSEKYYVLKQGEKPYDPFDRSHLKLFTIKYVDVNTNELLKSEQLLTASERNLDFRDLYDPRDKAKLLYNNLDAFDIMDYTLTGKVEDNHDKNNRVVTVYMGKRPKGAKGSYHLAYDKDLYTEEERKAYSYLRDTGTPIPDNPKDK

[9] = target: T2, Trace amine-associated receptor 1; assay: Fluorescence-based cell-based high throughput dose response assay to identify antagonists of the human trace amine associated receptor 1 (TAAR1).; assay type: functional
[10] = Counterscreen for antagonists of the human trace amine associated receptor 1 (hTAAR1): Fluorescence-based cell-based high throughput dose response assay to identify nonselective Ga16 antagonists.; assay type: functional
Streptococcus = assay: Group A Streptococcus viability loss, dose response, counter-screen for streptokinase expression inhibitor project, luminescence, BacTiterGlo (AID 1915); assay type: functional, organism-based;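 note: potency for reduction of bacterial viability or growth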
[11] = Luminescence-based cell-based high throughput dose response assay to identify activators of the DAF-12 from the parasite S. stercoralis (ssDAF-12).; assay type: functional
[12] = MITF: Counter assay: A375 proliferation Measured in Cell-Based System Using Plate Reader - 2084-03_Inhibitor_Dose_DryPowder_Activity_Set8.; assay type: functional; conditions: A-375
[13] = TRPM1 promoter luciferase reporter signal decrease, dose response, MITF inhibitor project, cell-based, SK-MEL-5, dry powder, set 8 (AID 624430); assay type: functional
[14] = MITF Orthogonal Assay: SK-MEL-5 CTG Assay Measured in Cell-Based System Using Plate Reader - 2084-02_Inhibitor_Dose_DryPowder_Activity_Set7.; assay type: functional
[15] = HEK293 cell cytotoxicity, dose response, cytotoxicity control, cherry-picks, set 5 (AID 1053117); assay type: functional, cell-based
[16] = HepG2 cell cytotoxicity, dose response, cytotoxicity control, cherry-picks, set 5 (AID 1053118); assay type: functional, cell-based
[17] = inhibitors of fibronectin matrix deposition, dose response, AH1F cells, Alexa488-FN fluorescence, cherry-picks (AID 1035475); assay type: functional, cell-based
[18] = A549 cell cytotoxicity, dose response, cytotoxicity control, cherry-picks, 26 µM top dose (AID 1053119); assay type: functional, cell-based
[19] = HEK293 Cytotoxicity Assay Measured in Cell-Based System Using Plate Reader - 7071-01_Inhibitor_Dose_CherryPick_Activity_Set2.; assay type: functional
HEK293 = assay: HEK293T cell cytotoxicity, dose response, cytotoxicity control, ATP luminescence, cherry-pick samples (AID 687005); assay type: functional, cell-based; conditions: Homo sapiens;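 note: cells exposed to compound for 48 hours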
[20] = cytotoxicity dependent on PAX8, dose response, cell-based, plate reader, dry powder (AID 743049); assay type: functional
[21] = PAX2 cell-based inhibition, dose response, selectivity assay for PAX8 inhibitor project, plate reader, dry powder samples (AID 743048); assay type: functional;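 note: HEK293 cells carrying a WT1 promoter luciferase reporter driven by expressed Pax2; potency is for inhibition of Pax2 driven reporter signal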
Paired box protein Pax-8 = Paired box protein Pax-8 (Homo sapiens, UniProt Q06710); assay: inhibitors of PAX8-driven TPO luciferase reporter, dose response, RMG-I cells, cherry-pick (AID 687027); assay type: functional, cell-based;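 note: luciferase reporter driven by Pax8 target thyroperoxidase promoter measured by SteadyGlo luminescence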
[22] = target: Metabotropic glutamate receptor 3 (Rattus norvegicus, UniProt P31422); assay: mGlu3 NAM potency via calcium readout, dose response, mGlu3 NAM project, TREx293 cells, Galpha15, calcium flux (AID 651840); assay type: functional
Protein Wnt-3a = Protein Wnt-3a (Mus musculus, UniProt P27467); assay: SAR analysis of small molecule antagonists of Gli-SUFU in a Wnt3a luminescent reporter assay.; assay type: functional
[23] = target: Kappa-type opioid receptor (Homo sapiens, UniProt P41145); assay: OPRK1 antagonists, late-stage follow-up, cell-based, fluorescence, dose response (AID 652032); assay type: functional
[24] = target: Potassium channel subfamily K member 3 (Homo sapiens, UniProt O14649); assay: TASK1 (KCNK3) potassium channel inhibitors, SAR follow-up, CHO cells, FluxOR thallium flux (AID 652212); assay type: functional
[25] = target: Potassium channel subfamily K member 9 (Homo sapiens, UniProt Q9NPC2); assay: TASK3 (KCNK9) channel inhibitors, thallium flux, SAR follow-up, selectivity assay for TASK1 inhibitor project, cell-based, FluxOR thallium flux, concentration-response (AID 652211); assay type: functional;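 note: potency is for inhibitors of the channel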
[26] = HepG2 cell cytotoxicity, dose response, cytotoxicity control, luminescence plate reader, powder samples, set 2 (AID 651860); assay type: functional, cell-based
[27] = target: Endoplasmic reticulum aminopeptidase 1 (Homo sapiens, UniProt Q9NZ08); assay: ERAP1 aminopeptidase inhibitors, dose response, biochemical, cherry-pick, set 2, plate reader (AID 743314)
[28] = target: Potassium channel subfamily K member 3 (Rattus norvegicus, UniProt O54912); assay: SAR analysis for the identification of selective inhibitors of the two-pore domain potassium channel TASK1(KCNK3):Automated Electrophysiology.; assay type: functional
[29] = Late stage assay provider results from the probe development effort to identify selective inhibitors of heat shock protein 90 (HSP90): Absorbance-based cell proliferation assay in MCF7 cells.; assay type: functional
[30] = Late stage assay provider results from the probe development effort to identify selective inhibitors of heat shock protein 90 (HSP90): Absorbance-based cell proliferation assay in SKBR3 cells.; assay type: functional; conditions: SK-BR-3

## O=C(c1nnc(O)c2ccccc12)N1CCN(C2c3ccccc3-c3ccccc32)CC1
[1]
  CC50: > 40 µM (active)
[2]
  AC50: 10.7 µM (active)
[3]
  AC50: 7.69 µM (active)

## CCCc1nc(SCC(=O)Nc2cc(C)on2)c2ccccc2n1
cells
  IC50: > 138 µM (inactive)
Major prion protein
  IC50: 1.01 µM (active)
[4]
  EC50: 31.6 µM (active)
[5]
  IC50: 83.5 µM (not active)

## COc1cccc(-c2nn(-c3ccccc3)cc2C(=O)Nc2nccs2)c1
[6]
  EC50: 14.9 µM (active)
[7]
  EC50: > 29.9 µM (inactive)
[8]
  EC50: > 29.9 µM (inactive)
H9c2
  IC50: 7.3 µM (active)
Streptokinase A
  EC50: 35.9 µM (active)
[9]
  IC50: 4.72 µM (active)
[10]
  IC50: > 29.9 µM (inactive)
Streptococcus
  EC50: > 150 µM (not active)

## COc1ccc(S(=O)(=O)Cc2ccc(C(=O)NCCCN3CCc4ccccc4C3)o2)cc1
[11]
  IC50: > 67.5 µM (inactive)

## CN(C1=CC(=O)c2ccccc2C1=O)c1ccccc1
[12]
  AC50: > 70 µM (inactive)
[13]
  AC50: 16.2 µM (active)
[14]
  AC50: 2.32 µM (active)

## COc1ccc(S(=O)(=O)N2CCCCC2c2cc(C(=O)Nc3ccc4c(c3)OCO4)no2)cc1 (centres undefined)
[15]
  AC50: 11.4 µM (active)
[16]
  AC50: 15.4 µM (active)
[17]
  AC50: 32.6 µM (active)
[18]
  AC50: 23.9 µM (active)

## COc1ccc(S(=O)(=O)N[C@@H]2C=C[C@@H](CC(=O)N3CCC(Cc4ccccc4)CC3)O[C@H]2CO)cc1
[19]
  AC50: 19.9 µM (active)
HEK293
  AC50: 19.9 µM (active)

## C[C@H](CO)N1C[C@H](C)[C@@H](CN(C)Cc2ccc(-c3ccccc3)cc2)Oc2ccc(NC(=O)C3CC3)cc2CC1=O
[20]
  AC50: > 70 µM (inactive)
[21]
  AC50: > 70 µM (inactive)
Paired box protein Pax-8
  AC50: 26.1 µM (active)

## COc1ccc(C#Cc2ccc(C(=O)N3CC4CCC(O)C4C3)cc2)cc1 (centres undefined)
[22]
  IC50: 3.5 µM

## COc1cc(OC)cc(C(=O)Nc2cc(Nc3cccc(Cl)c3)ncn2)c1
Protein Wnt-3a
  IC50: > 21.8 µM (inactive)

## COC(=O)c1cc(Br)cnc1N1CCC(Nc2ccccc2)CC1
[23]
  IC50: 17.5 µM (inactive)

## CCOc1ccccc1NC(=O)c1cccc(NC(=O)c2ccccc2C)c1
[24]
  IC50: 0.14 µM (active)
[25]
  IC50: 4.29 µM (active)

## O=C(O)[C@H]1CCCC[C@H]1C(=O)N1CCc2ccccc2C1CCN1C(=O)c2ccccc2C1=O (some centres undefined)
[26]
  AC50: > 52 µM (inactive)

## C[C@H](CO)N1C[C@H](C)[C@H](CN(C)Cc2ccc(C(=O)O)cc2)Oc2ccc(NC(=O)Nc3cccc4ccccc34)cc2CC1=O
[27]
  AC50: 21.1 µM (active)

## CCOc1ccccc1NC(=O)c1cccc(NC(=O)c2ccc(Cl)cc2)c1
[28]
  IC50: 7.24 µM (active)
[24]
  IC50: 0.139 µM (active)

## CC(=O)c1ccc(NC(=O)c2coc(=O)c(Br)c2)cc1
[29]
  IC50: 10.7 µM (inactive)
[30]
  IC50: 8.4 µM (active)
